Patent US11903956B2, “Compositions and products for infectious or inflammatory diseases or conditions” (B&H BIOTECHNOLOGIES, LLC, priority 2013, dated 2024)

Assays:
[1] = tested on: respiratory infections accompanied with the respiratory syndrome (asthma); experiment: Treatment of respiratory infections or disorders of piglets; assay type: in vivo
Description: The formulations of 1.2 and 3.2 as prepared above in 6.1 were used for the prevention and treatment of respiratory infections or disorders of piglets. The ORS alone and a commercially available antibiotic product, Timicosin were used as controls. In addition, combination of formula 3.2 and Timicosin was used for the treatment of respiratory infections or disorders of piglets.
Weaning piglets (10˜15 kg, aged 5-7 weeks) suffered from respiratory infections accompanied with the respiratory syndrome characterized by asthma-like symptoms (difficulty with breath). The sick piglets were treated separately once a day via oral administration or intramuscular injection with 1) Tilmicosin according to manufacture's instructions (n=39); 2) 1 ml/kg of body weight of the formula-3.2 (n=36); and 3) Tilmicosin and 1 ml/kg of body weight of the formula-3.2 (n=41).

[2] = tested on: influenza virus of A/PR/8/34(H1N1); assay type: in vivo, mouse
[3] = tested on: sucking piglets with yellow watery diarrhea or infective gastroenteritis; experiment: Treatment of piglet diarrhea at ages 1-5 days with formulations; assay type: in vivo
Description: Diarrhea is a common disorder with sucking or weaning piglets. Viral or bacterial infections are common causes of piglet diarrhea. Piglets with viral diarrhea usually have yellow watery stools and piglets with bacterial diarrhea usually have gray stools. Sometimes, yellow diarrhea is accompanied with vomiting showing the characteristic of infective gastroenteritis. Often, piglet diarrhea or infective gastroenteritis is caused by mixed infection of viruses and bacteria. Piglets younger than one week could have a serious viral diarrhea or infective gastroenteritis with high death rates from about 70% to over 90%.
The formulations of 1.2, 2.2, 3.2 and 4.2 as prepared above in 6.1 were used for the treatment of diarrhea piglets at ages 1-5 days. […] In addition, combination of formula 1.2 and Enrofloxacin was also used for the treatment of piglet diarrhea.
Seven groups of sucking piglets with yellow watery diarrhea or infective gastroenteritis at ages of 1-5 days were treated once per day via oral administration or muscular injection with: 1) 1 ml/kg of body weight of ORS alone (control group, n=50); 2) Enrofloxacin according to manufacture's instruction (antibiotic control, n=69); 3) 1 ml/kg of body weight of the formula-1.2 (n=49); 4) 1 ml/kg of body weight of the formula-2.2 (n=82); 5) 1 ml/kg of body weight of the formula-3.2 (n=55); 6) 1 ml/kg of body weight of the […]; and 7) 1 ml/kg of body weight of the formula-1.2 plus Enrofloxacin (n=32).

[4] = tested on: sucking or weaning piglets with various diarrheas or infective gastroenteritis; experiment: Treatment of piglet diarrhea at ages 5-40 days with formula-2.2; assay type: in vivo
Description: The formula-2.2 as prepared above in 6.1 was used for the treatment of diarrhea piglets at ages 5-40 days.
Two groups of sucking or weaning piglets with various diarrheas or infective gastroenteritis at ages of 5-40 days were treated once per day via oral administration with: 1) Enrofloxacin according to manufacture's instruction (antibiotic group, n=139); and 2) 1 ml/kg of body weight of the formula-2.2 (n=262).

rhesus rotavirus (RRV) = experiment: Treatment of rotavirus infection of mouse pups with formulations; details: RRV-infected mouse pups
[5] = tested on: dogs suffered from acute diarrhea; experiment: Treatment of diarrhea of dogs with formula-2.2; assay type: in vivo
Description: Two groups of dogs suffered from acute diarrhea with the symptoms of vomiting, depression, dehydration, listlessness, an increased frequency of diarrhea were treated once per day via oral administration or intramuscular injection with: 1) Cephradine according to manufacture's instruction (antibiotic group, n=15); and 2) 1.5 ml/kg of body weight of the formula-2.2 (n=10). Eight out ten (8/10, 80%) of the dogs stopped diarrhea after one dose of the treatment with formula-2.2.

[6] = tested on: dogs suffered from respiratory infections; experiment: Treatment of respiratory infections of dogs; assay type: in vivo
Description: The formula-3.2 as prepared above in 6.1 was used via oral administration for the prevention or treatment of respiratory infections or disorders of dogs.
Two groups of dogs suffered from respiratory infections with the symptoms of runny nose, coughing, chills, fever and weakness/fatigue (etc.) were treated once per day via oral administration or intramuscular injection with: 1) Tulathromycin according to manufacture's instruction (antibiotic group, n=6); 2) 1.5 ml/kg of body weight of the formula-3.2 (n =6); and 3) Tulathromycin and 1.5 ml/kg of body weight of the formula-3.2 (n=9).

SMILES: CC[C@H]1OC(=O)C[C@@H](O)[C@H](C)[C@@H](O[C@@H]2O[C@H](C)[C@@H](O)[C@H](N(C)C)[C@H]2O)[C@@H](CCN2C[C@H](C)C[C@H](C)C2)C[C@@H](C)C(=O)/C=C/C(C)=C/[C@@H]1CO[C@@H]1O[C@H](C)[C@@H](O)[C@@H](OC)[C@H]1OC [Tilmicosin]
- doses needed for getting recovered ([1]; in vivo): 4-5 doses
- Odds Ratio of death ([1]; piglets with respiratory syndrome): 3.63
- Rate (%) death ([1]; weaning piglets with respiratory syndrome (asthma)): 28.2%
- Death (number of piglets) ([1]; weaning piglets with respiratory syndrome (asthma), once a day): 11

SMILES: CCOC(=O)C1=C[C@@H](OC(CC)CC)[C@H](NC(C)=O)[C@@H](N)C1 [Tamiflu]
- Odds Ratio of death ([2]; influenza infection of mice): 0.36
- Death (number of mice) ([2]; mouse, in vivo, ip): 21
- Rate (%) death rate ([2]; mouse, in vivo, ip): 70%

SMILES: CCN1CCN(c2cc3c(cc2F)c(=O)c(C(=O)O)cn3C2CC2)CC1 [Enrofloxacin]
- No death (number of piglets) ([3]; diarrhea piglets aged 1-5 days): 21
- OR(risk) of death ([3]; diarrhea piglets aged 1-5 days): 0.19
- Rate (%) death rate ([3]; diarrhea piglets aged 1-5 days): 69.6%
- Death (number of piglets) ([3]; diarrhea piglets aged 1-5 days, once per day): 48
- day after treatment at which majority of piglets stopped diarrhea ([3]; one dose treatment every day): 4 to 5 days
- day at which majority of piglets stopped diarrhea ([4]; after 4-5 dose treatment (one dose every day)): 4 to 5 days
- Later Rec (recovered after 48 hours), number of piglets ([4]; diarrhea piglets aged 5-40 days): 136
- Early Rec (recovered within 48 hours), number of piglets ([4]; diarrhea piglets aged 5-40 days, oral once per day): 3
- OR ([4]; early recovery): 0.001
- Rate (%) of early recovery ([4]; recovered within 48 hours): 2.16%
- OR(effect) (rhesus rotavirus (RRV)): 0.06
- OR(risk) of death (rhesus rotavirus (RRV)): 0.76
- duration of diarrhea (rhesus rotavirus (RRV)): 3 to 4 days
- outcome in words (diarrhea severity, death rate, efficacy) (rhesus rotavirus (RRV)): serious
- Not effect (number of pups) (rhesus rotavirus (RRV); 50 μl oral once per day): 48
- Effect (number of pups) (rhesus rotavirus (RRV); 50 μl oral once per day, […]): 3
- Death (number of pups) (rhesus rotavirus (RRV); kept 3 weeks): 12
- Death Rate(%) (rhesus rotavirus (RRV); kept 3 weeks): 23.5%
- Not died (number of pups) (rhesus rotavirus (RRV); kept 3 weeks): 39
- Rate(%) of effect (rhesus rotavirus (RRV); […]): 5.88%

SMILES: CC1=C(C(=O)O)N2C(=O)[C@@H](NC(=O)[C@H](N)C3=CCC=CC3)[C@H]2SC1 [Cephradine]
- Later Rec (recovered after 24 hours), number of dogs ([5]; dogs with acute diarrhea): 14
- Early Rec (recovered within 24 hours), number of dogs ([5]; dogs with acute diarrhea, once per day): 1
- OR ([5]; early recovery): 0.02
- Rate (%) of early recovery ([5]; recovered within 24 hours): 6.67%

SMILES: CCCNC[C@]1(O)[C@H](C)O[C@@H](O[C@H]2[C@H](C)[C@@H](O[C@@H]3O[C@H](C)C[C@H](N(C)C)[C@H]3O)[C@](C)(O)C[C@@H](C)CN[C@H](C)[C@@H](O)[C@](C)(O)[C@@H](CC)OC(=O)[C@@H]2C)C[C@@]1(C)OC [Tulathromycin]
- doses needed for getting recovered ([6]; dog, in vivo): 4-7 doses
- Later Rec, number of dogs ([6]; dogs with respiratory infections): 5
- Early Rec (recovered within 48-72 hours), number of dogs ([6]; dogs with respiratory infections, once per day): 1
- OR ([6]; early recovery): 0.04
- Rate (%) of early recovery ([6]; recovered within 48-72 hours): 16.7%
